From patent US7476680B2, “Substituted heterocyclic compounds for treating multidrug resistance” (H. Lee Moffitt Cancer Center & Research Institute, Inc., priority 2000, dated 2009)

Key:
[1] = tested on: NIH-MDR1-G185 cells; assay: Fluorescent substrate accumulation assay (BODIPY-FL Taxol); assay type: cell-based; conditions: BODIPY-FL Taxol 500 nM, modulator 10 micromolar, 40 min at 37° C.; fluorescence with modulator / without modulator
Protocol: Fluorescent Substrate Accumulation Assay
NIH-MDR1-G185 cells (obtained from M. Gottesman, NIH) were harvested and resuspended in RPMI-1640 containing L-glutamine, 10% Cosmic Calf Serum and penicillin-streptomycin. Cell suspension aliquots of 175 microliters (1×10^5 cells) were added to individual wells of a 96 well microtiter plate and preincubated for 15 min at 37° C. with 20 microliters MDR modulator diluted in cell culture media to give a final concentration of 10 micromolar. Control wells received no modulating agent. BODIPY-FL Taxol (Molecular Probes, Eugene, Oreg.) was added to each well in 10 microliter aliquots to give a final concentration of 500 nM and cells were incubated for 40 min at 37° C. Cells were centrifuged at 100×g for 5 min at 4° C. and the cell pellet washed with 200 microliters cold PBS to remove fluorescent medium from wells. Cells were centrifuged once more, media removed, and cells resuspended in 200 microliters cold PBS. Fluorescence accumulation was measured in a fluorescence plate reader fitted with an excitation filter of 485 nm and an emission filter of 538 nm. BODIPY-FL taxol accumulation in the cells was calculated as follows: Accumulation Index=(fluorescence in NIH-MDR1-G185 cells in the presence of modulator)/(fluorescence in NIH-MDR1-G185 cells in absence of modulator)

[2] = target: T1, MDR1-ATPase (Homo sapiens, UniProt P08183); assay: MDR1 ATPase assay (substrate potential for MDR1); assay type: biochemical; conditions: isolated Sf9 cell membranes; for Ki: half-maximum inhibition of MDR1-ATPase stimulated by 30-40 micromolar verapamil
T1 construct: made in house; host or cells: Sf9 insect cells (baculovirus); isolated membranes
T1 sequence (P08183 whole entry): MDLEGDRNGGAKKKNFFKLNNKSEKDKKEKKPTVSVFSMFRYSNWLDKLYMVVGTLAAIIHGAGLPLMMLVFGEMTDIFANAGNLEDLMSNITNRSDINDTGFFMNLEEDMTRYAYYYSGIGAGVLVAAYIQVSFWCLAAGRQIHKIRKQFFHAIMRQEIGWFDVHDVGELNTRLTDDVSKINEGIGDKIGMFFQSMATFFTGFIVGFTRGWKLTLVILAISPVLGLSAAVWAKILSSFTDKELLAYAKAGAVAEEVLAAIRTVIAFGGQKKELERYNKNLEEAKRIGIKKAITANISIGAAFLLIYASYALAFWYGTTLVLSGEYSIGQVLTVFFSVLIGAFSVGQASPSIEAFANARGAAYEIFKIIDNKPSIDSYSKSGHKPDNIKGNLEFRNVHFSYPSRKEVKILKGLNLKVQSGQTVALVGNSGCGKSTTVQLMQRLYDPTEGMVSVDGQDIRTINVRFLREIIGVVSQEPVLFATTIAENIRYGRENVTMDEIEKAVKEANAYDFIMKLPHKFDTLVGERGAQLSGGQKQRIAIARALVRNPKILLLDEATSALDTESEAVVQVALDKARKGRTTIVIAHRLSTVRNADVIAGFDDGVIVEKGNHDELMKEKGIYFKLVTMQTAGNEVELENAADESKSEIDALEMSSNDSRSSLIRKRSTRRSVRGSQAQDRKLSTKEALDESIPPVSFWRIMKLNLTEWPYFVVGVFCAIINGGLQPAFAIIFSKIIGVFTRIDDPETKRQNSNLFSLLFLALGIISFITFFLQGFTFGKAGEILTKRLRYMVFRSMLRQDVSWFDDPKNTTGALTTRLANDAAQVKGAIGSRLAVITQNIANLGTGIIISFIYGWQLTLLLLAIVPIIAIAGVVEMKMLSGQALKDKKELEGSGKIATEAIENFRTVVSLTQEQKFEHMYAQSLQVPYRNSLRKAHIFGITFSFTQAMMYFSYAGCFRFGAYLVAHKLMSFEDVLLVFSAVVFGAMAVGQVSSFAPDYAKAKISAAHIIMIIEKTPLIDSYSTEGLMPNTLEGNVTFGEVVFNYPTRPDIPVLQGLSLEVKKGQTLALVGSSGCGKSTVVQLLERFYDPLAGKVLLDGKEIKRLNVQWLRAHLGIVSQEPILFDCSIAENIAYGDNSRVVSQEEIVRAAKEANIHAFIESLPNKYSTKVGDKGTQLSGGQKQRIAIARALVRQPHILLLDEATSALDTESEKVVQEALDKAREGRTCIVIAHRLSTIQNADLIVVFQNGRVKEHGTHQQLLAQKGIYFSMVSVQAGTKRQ
Excerpt: Method for Measuring Substrate Potential for MDR1 (MDR1 ATPase assay)
Recombinant baculovirus carrying the human MDR1 gene was generated and Sf9 cells infected with virus. The virus-infected cells were harvested and their membranes isolated. MDR1-ATPase activity of the isolated Sf9 cell membranes was estimated by measuring inorganic phosphate liberation as previously described (B. Sarkadi, J. Biol. Chem., 1992, 267:4854-4858). The differences between the ATPase activities measured in the absence and presence of 100 micromolar vanadate were determined as activity specific to MDR1. MDR modulator concentrations causing half-maximum activation (Ka) or half-maximum inhibition of the MDR1-ATPase stimulated by 30-40 micromolar verapamil (Ki) were determined.

[3] = concentration causing half-maximum activation of MDR1-ATPase

Compound | Accumulation Index [1] | EC50 ([2]; concentration causing half-maximum activation of MDR1-ATPase, read-out: Substrate Potential Ka(MDR1-ATPase)) | Ki [2] | Substrate Potential Ka(MDR1-ATPase) [2, 3]
CC1(C(=O)NC(CCCc2ccccc2)CCCc2ccccc2)CCN(C[C@@H](O)COc2cccc3ncccc23)CC1 [Example 50, (R)-1-[2-hydroxy-3-(quinolin-5-yloxy)-propyl]-methylpiperidine-4-carboxylic acid [4-phenyl-1-(3-phenyl-propyl)-butyl]-amide] | 10 | – | – | –
O=C(NC1CCN(C[C@H](O)COc2cccc3ncccc23)CC1)C(CCCc1ccccc1)CCCc1ccccc1 (stereo in doubt) [Example 25, 5-phenyl-2-(3-phenyl-propyl)-pentanoic acid {1-[2-hydroxy-3-(quinolin-5-yloxy)-propyl]-piperidin-4-yl}-amide] | – | 5 nM | 10 nM | –
COc1cc(C(=O)C(=O)N2CCCC(C(=O)NC(CCCc3ccccc3)CCCc3ccccc3)C2)cc(OC)c1OC (stereo not shown) [Example 26, 1-(3,4,5-trimethoxyglyoxyl)-piperidine-3-carboxylic acid [4-phenyl-1-(3-phenyl-propyl)-butyl]-amide] | – | – | 500 nM | no activation
COc1cc(OC[C@H](O)CN2CCCC(C(=O)NC(CCCc3ccccc3)CCCc3ccccc3)C2)cc(OC)c1OC (stereo partly shown) [Example 15] | – | – | > 50000 nM | weak activation
O=C(NC(CCCc1ccccc1)CCCc1ccccc1)C1CCCN(C[C@@H](O)COc2cccc3ncccc23)C1 (stereo partly shown) [Example 14] | – | – | 300 nM | no activation
(R)-1-[2-hydroxy-3-(quinolin-5-yloxy)-propyl]-piperidine-4-carboxylic acid [4-(3-pyridyl-1-(3-pyridyl-propyl)-butyl]-amide [Example 53] | 8 | – | – | –
O=C(NCCCCc1ccccc1)[C@H]1CN(C[C@@H](O)COc2cccc3ncccc23)CC[C@H]1C(=O)NCCCCc1ccccc1 (stereo in doubt) [Example 11, cis-(R)-1-[2-hydroxy-3-(quinolin-5-yloxy)-propyl]-piperidine-3,4-dicarboxylic acid bis-[(4-phenyl-butyl)-amide]] | – | – | 20 nM | no activation
O=C(C1CCN(C[C@@H](O)COc2cccc3ncccc23)CC1)N(Cc1ccccc1)Cc1ccccc1 [Example 36, (R)-1-[2-hydroxy-3-(quinolin-5-yloxy)-propyl]-piperidine-4-carboxylic acid dibenzyl amide] | – | – | 1000 nM | no activation
O=C(NC(CCCc1ccccc1)CCCc1ccccc1)C1CCN(C[C@@H](O)COc2cccc3ncccc23)CC1 [Example 5, (R)-1-[2-hydroxy-3-(quinolin-5-yloxy)-propyl]-piperidine-4-carboxylic acid [4-phenyl-1-(3-phenyl-propyl)-butyl]-amide] | – | – | 300 nM | no activation
